Measured values reported in patent US4968708A, “Imidazo[2,1-B]benzothiazole compounds and antiulcer compositions containing the same” (priority 1988, dated 1990).

Experiments:
[1] = test system: aspirin-induced ulcer; test: Antiulcer activity against aspirin-induced ulcer model; assay type: in vivo, Wistar strain male rats; details: rats, 100 mg/kg p.o. 30 min before aspirin 200 mg/kg p.o.; for Aspirin Induced Ulcer Ulcer Index: stomach excised 7 h after aspirin; for inhibition in vivo at 100 mg/kg: Rattus norvegicus, po, 7 h, read-out: Aspirin Induced Ulcer Inhibition Rate
Method: Thirty minutes after administration, aspirin was further orally administered at a dose of 200 mg/kg. Seven hours after administration of aspirin, the stomach was excised under ethereal anesthesia and spotted and linear erosion and a long diameter of any ulcer were microscopically measured to determine an ulcer index and an inhibition rate.
(§1) In the control group, a 5% gum arabic aqueous solution was orally administered at a dose of 5 ml/kg.

[2] = test system: water-immersion stress ulcer; test: Antiulcer activity against water-immersion stress ulcer; assay type: in vivo, Wistar strain male rats; details: rats; for Water-Immersion Stress Ulcer Ulcer Index: 100 mg/kg p.o. 30 min before 6 h water immersion at 22°±1° C.; for inhibition in vivo at 100 mg/kg: Rattus norvegicus, po, 6 h, read-out: Water-Immersion Stress Ulcer Inhibition Rate
Method: A suspension of each test compound in a 5% gum arabic aqueous solution was orally given to Wistar strain male rats (at the age of 7 to 8 weeks, weighing 180 to 250 g; 7-9 rats in the group administered with the test compound; 10-16 rats in the control group) fasted for 24 hours at a dose of 100 mg of the test compound/5 ml/kg. Thirty minutes after administration, the animal was immersed in a water bath at 22°±1° C. up to the xiphisternum using a stress cage made by Tokyo University, Faculty of Pharmacology, to apply a stress load for 6 hours. After applying the stress load, the rats had the cervical vertebra dislocated to death. Then, the stomach was excised and, spotted and linear erosion and a long diameter of any ulcer were microscopically measured to determine an ulcer index and an inhibition rate.
as §1

[3] = test system: gastric juice secretion; test: Gastric juice secretion inhibition activity (pyloric ligature); assay type: in vivo, Wistar strain male rats; details: rats, 100 mg/kg p.o.; for inhibition in vivo at 100 mg/kg: Rattus norvegicus, po, read-out: Volume Inhibition Rate
Method: A suspension of each test compound in a 5% gum arabic aqueous solution was orally given to Wistar strain male rats (at the age of 7 to 8 weeks, weighing 180 to 250 g; 7-9 rats in the group administered with the test compound; 14-17 rats in the control group) fasted for 24 hours at a dose of 100 mg of the test compound/5 ml/kg. Thirty minutes after administration, pyloric ligature was made under ethereal anesthesia. Four hours thereafter, the stomach was excised under ethereal anesthesia to collect gastric juice. The collected gastric juice was centrifuged (2500 rpm) at 4° C. for 10 minutes. After the supernatant was collected, the amount of the gastric juice and its pH were measured using a pH meter. Furthermore, the amount of free hydrochloric acid and the total acidity were measured with Topfer reagent and phenolphthalein reagent, respectively. Using a part of the gastric juice, pepsin output in the gastric juice was measured using casein as a substrate in a manner similar to the method of Anson et al.
as §1

[4] = test system: ddy strain male mice; test: Acute toxicity; assay type: in vivo; details: 7 days observation
Method: A suspension of each test compound in a 5% gum arabic aqueous solution was orally given to ddy strain male mice (at the age of 4 to 5 weeks, weighing 25 to 35 g; 2 to 9 mice in one group). For 7 days after the administration, the mice were observed as to if they were dead or alive. Based on the number of deaths, the LD50 value was determined by the Probit method.

[5] = 100 mg/kg p.o. 30 min before 6 h water immersion, vs control group
[6] = pyloric ligature 30 min later, gastric juice collected after 4 h
[7] = pyloric ligature, 4 h, first part of Table 5
[8] = pyloric ligature, 4 h, second part of Table 5
[9] = 4 h, pyloric ligature, 4 h, vs control group

Compound	Aspirin Induced Ulcer Ulcer Index [1] [mm^2]	Water-Immersion Stress Ulcer Ulcer Index [2] [mm^2]	Volume (gastric juice) [3, 6] [mL]	Acidity ([3]; pyloric ligature, 4 h) [mEq/l]	Free HCl ([3]; pyloric ligature, 4 h) [mEq/l]	Pepsin Activity ([3]; pyloric ligature, 4 h) [units/ml]	Pepsin Output ([3]; pyloric ligature, 4 h) [units/hr]	pH (gastric juice) [3, 7]	inhibition in vivo at 100 mg/kg ([1]; vs control group) [%]	inhibition in vivo at 100 mg/kg [2, 5] [%]	Acid Output [3, 8] [mcEq/100 g]	Free HCl [3, 8] [mcEq/100 g]	Pepsin Output [3, 8] [mg tyrosine/100 g]	Volume (gastric juice) [3, 8] [ml/100 g]	pH (gastric juice) [3, 8]	Mortality (No. death/No. treated) ([4]; 500 mg/kg p.o)	Mortality (No. death/No. treated) ([4]; 1000 mg/kg p.o)	inhibition in vivo at 100 mg/kg [3, 9] [%]	also measured
2-Methyl-3-thenoyloxymethylimidazo[2,1-b]benzothiazole [Example 19]	63.7 ± 8.1	11.3 ± 2.6	4.9 ± 0.5	78.9 ± 2.7	48.6 ± 3.4	99.6 ± 2.2	122.8 ± 14.4	1.56 ± 0.10											Aspirin Induced Ulcer Inhibition Rate ([1]; vs control group): 4.6%; Water-Immersion Stress Ulcer Inhibition Rate [2, 5]: 51.5%; Volume Inhibition Rate ([3]; pyloric ligature, 4 h, vs control group): 18.3%
Cc1nc2sc3ccccc3n2c1C(C)O (stereo not shown) [Example 4, 3-(1-Hydroxyethyl)-2-methylimidazo[2,1-b]benzothiazole]	8.0 ± 2.9	7.3 ± 2.5							88.7	69.2	30.8 ± 5.1	8.0 ± 2.9	9.9 ± 1.3	0.69 ± 0.09	2.36 ± 0.21	0/5	0/5		
CCCC(O)c1c(C)nc2sc3ccccc3n12 (stereo not drawn) [Example 5, 3(α-Hydroxy)butyl-2-methylimidazo[2,1-b]benzothiazole]	43.8 ± 10.3	20.4 ± 4.2	6.7 ± 0.7	45.0 ± 5.6	10.4 ± 2.1	86.2 ± 1.9	139.6 ± 16.7	2.17 ± 0.12	23.7	5.1								-13.6	
Cc1nc2sc3ccccc3n2c1C(C)(C)O [Example 6, 3(α-Hydroxy-1-methyl)ethyl-2-methylimidazo[2,1-b]benzothiazole]	55.1 ± 8.7	11.7 ± 4.5							22.3	50.6	169.9 ± 38.0	138.6 ± 37.3	23.4	1.90 ± 0.33	1.24 ± 0.07	0/5	0/5		
Cc1nc2sc3ccccc3n2c1C(O)c1ccccc1 (stereo not shown) [Example 7, 3(αHydroxy)benzyl-2-methylimidazo[2,1-b]benzothiazole]	39.6 ± 3.7	17.9 ± 4.5	5.4 ± 0.6	69.1 ± 7.0	39.7 ± 5.0	99.5 ± 4.1	135.0 ± 18.1	1.65 ± 0.13	31	16.7								8.5	
COc1ccc2c(c1)sc1nc(C)c(CO)n12 [Example 9, 7-Methoxy-2-methylimidazo[2,1-b]benzothiazole-3-methanol]	64.8 ± 7.5	6.4 ± 1.2	5.3 ± 0.9	76.2 ± 4.3	42.6 ± 5.2	102.2 ± 3.9	135.5 ± 22.7	1.55 ± 0.08	15	51.5								15.9	
COc1cc2c(sc3nc(C)c(CO)n32)c(OC)c1OC [Example 10, 6,7,8-Trimethoxy-2-methylimidazo[2,1-b]benzothiazole-3-methanol]	53.7 ± 8.3	9.6 ± 2.1	5.2 ± 0.5	87.3 ± 3.5	50.4 ± 3.2	103.5 ± 1.8	133.7 ± 10.8	1.47 ± 0.03	29.5	27.3								17.5	
Cc1nc2sc3cc(F)ccc3n2c1CO [Example 11, 7-Fluoro-2-methylimidazo[2,1-b]benzothiazole-3-methanol]	34.2 ± 2.2	10.9 ± 4.4							51.8	54	118.8 ± 37.2	89.1 ± 35.5	16.7 ± 2.9	1.40 ± 0.34	1.58 ± 0.15	0/5	0/5		
Cc1nc2sc3ccccc3n2c1COC(C)C.Cl [Example 13, 2-Methylimidazo[2,1-b]benzothiazole-3-methanol isopropyl ether hydrochloride]	24.4 ± 3.3								71		57.6 ± 16.4	22.3 ± 10.7	13.0 ± 2.3	1.29 ± 0.23	2.70 ± 0.53	0/5	5/5		
COc1ccc(COCc2c(C)nc3sc4ccccc4n23)cc1 [Example 14, 2-Methylimidazo[2,1-b]benzothiazole-3-methanol (4-methoxy-benzyl) ether]	71.5 ± 8.0	7.5 ± 2.2							15	39	196.8 ± 38.0	144.9 ± 35.0	22.4 ± 3.8	2.63 ± 0.35	1.42 ± 0.08	0/5	0/5		
COc1ccccc1C(=O)OCc1c(C)nc2sc3ccccc3n12 [Example 18]	45.3 ± 10.4	13.5 ± 4.1	8.1 ± 0.8	82.1 ± 5.0	51.7 ± 5.8	91.4 ± 3.3	186.6 ± 24.3	1.45 ± 0.06	32.2	42.1								-35	
CCNC(=O)OCc1c(C)nc2sc3ccccc3n12 [Example 20, 2-Methylimidazo[2,1-b]benzothiazole 3-methyl ethyl carbamate]	56.2 ± 6.8	4.0 ± 1.3	5.9 ± 0.3	54.5 ± 7.0	26.1 ± 5.5	91.6 ± 1.7	136.0 ± 7.2	1.89 ± 0.12	26.2	69.7								6.3	
